We go through four compounds from ChEMBL document CHEMBL3102811, “Synthesis and anti-inflammatory activity of indole glucosinolates” (2014).

A value given as a limit tells only on which side of the number the result lay.

Holding throughout (format): functional
Assay [1] has as its system THP-1. The assay is described as follows: Antiinflammatory activity in PMA-treated human THP1 cells assessed as LPS-induced TNFalpha secretion at 0.10 uM after 4 hrs by sandwich ELISA relative to control. In general terms: In an ELISA, binding on a coated surface is turned into a signal by an enzyme label.
The test system of assay [2] is THP-1. The assay is described as follows: Antiinflammatory activity in PMA-treated human THP1 cells assessed as LPS-induced TNFalpha secretion at 15 uM after 4 hrs by sandwich ELISA relative to control.
For assay [3], the system named is THP-1. Nature of the assay: Antiinflammatory activity in PMA-treated human THP1 cells assessed as inhibition of LPS-induced TNFalpha secretion at 1 uM after 4 hrs by sandwich ELISA relative to control. Particulars: THP-1, 4 h.
In assay [4] the test system is THP-1. The assay is described as follows: Antiinflammatory activity in PMA-treated human THP1 cells assessed as inhibition of LPS-induced TNFalpha secretion at 10 uM after 4 hrs by sandwich ELISA relative to control. Particulars: THP-1, 4 h.
For assay [5], the system named is THP-1. Nature of the assay: Antiinflammatory activity in PMA-treated human THP1 cells assessed as inhibition of LPS-induced TNFalpha secretion at 15 uM after 4 hrs by sandwich ELISA relative to control. Particulars: THP-1, 4 h.
Assay [6] relates to THP-1. Nature of the assay: Antiinflammatory activity in PMA-treated human THP1 cells assessed as LPS-induced TNFalpha secretion at 1 uM after 4 hrs by sandwich ELISA relative to control.
The subject of assay [7] is THP-1. The assay is described as follows: Antiinflammatory activity in PMA-treated human THP1 cells assessed as LPS-induced TNFalpha secretion at 10 uM after 4 hrs by sandwich ELISA relative to control.
In assay [8] the test system is THP-1. The assay is described as follows: Antiinflammatory activity in PMA-treated human THP1 cells assessed as inhibition of LPS-induced TNFalpha secretion at >=10 uM after 4 hrs by sandwich ELISA relative to control.
Assay [9] concerns THP-1. The assay is described as follows: Antiinflammatory activity in PMA-treated human THP1 cells assessed as inhibition of LPS-induced TNFalpha secretion at 0.5 uM after 4 hrs by sandwich ELISA relative to control. Particulars: THP-1, 4 h.
The test system of assay [10] is THP-1. Nature of the assay: Antiinflammatory activity in PMA-treated human THP1 cells assessed as LPS-induced TNFalpha secretion at 0.5 uM after 4 hrs by sandwich ELISA relative to control.
The subject of assay [11] is THP-1. Nature of the assay: Antiinflammatory activity in PMA-treated human THP1 cells assessed as LPS-induced TNFalpha secretion at 5 uM after 4 hrs by sandwich ELISA relative to control.

For the compound `COc1cccc2[nH]cc(C/C(=N\OS(=O)(=O)[O-])S[C@@H]3O[C@H](CO)[C@@H](O)[C@H](O)[C@H]3O)c12.[K+]`, the Activity with THP-1 [1] amounted to 214.36 pg/mg; with THP-1 [2], 135.01 pg/mg; in the assay on THP-1 [6] it was 187.45 pg/mg; in the assay on THP-1 [7], 146.53 pg/mg. In the assay on THP-1 [3], the inhibition at 1 µM is 24%. Moreover, in the assay on THP-1 [4], the inhibition at 10 µM was 41%. Besides, the inhibition at 15 µM with THP-1 [5] was 46%.
For `O=S(=O)([O-])O/N=C(\Cc1c[nH]c2ccccc12)S[C@@H]1O[C@H](CO)[C@@H](O)[C@H](O)[C@H]1O.[K+]`, the Activity with THP-1 [1] was determined as 215.57 pg/mg; in the assay with THP-1 [2], 136.79 pg/mg; in the assay on THP-1 [6], 196.65 pg/mg; in the assay with THP-1 [7] it was 158.94 pg/mg. Also, the inhibition at 1 µM with THP-1 [3] was at least 24%. Besides, in the assay with THP-1 [5], the inhibition at 15 µM amounted to 54%.
Take `COn1cc(C/C(=N\OS(=O)(=O)[O-])S[C@@H]2O[C@H](CO)[C@@H](O)[C@H](O)[C@H]2O)c2ccccc21.[K+]`: the Activity turned out to be 251.69 pg/mg with THP-1 [1], 169.06 pg/mg in the assay with THP-1 [2], 228.9 pg/mg with THP-1 [6] and 181.1 pg/mg in the assay with THP-1 [7]. In addition, the “inhibition (INH)” value with THP-1 [8] was “>=32%”. In addition, the inhibition at 1 µM in the assay with THP-1 [3] was at least 24%.
For the compound `Oc1cc(O)c2c(c1)OC(c1ccc(O)c(O)c1)C(O)C2` (centres undefined) [CATECHIN], in the assay on THP-1 [9], the inhibition at 0.5 µM came out at 37%. For the same compound, the Activity with THP-1 [2] amounted to 255.94 pg/mg; in the assay on THP-1 [10], 303.98 pg/mg; in the assay on THP-1 [11], 282.65 pg/mg. For the same compound, the inhibition at 15 µM in the assay on THP-1 [5] stood at 48%.

Broadly, the inhibition is the drop in the measured response relative to a control, in per cent.
